Data set [1] concerns the target T1, MAO-A (Homo sapiens, UniProt P21397).
T1 sequence (P21397 1-527): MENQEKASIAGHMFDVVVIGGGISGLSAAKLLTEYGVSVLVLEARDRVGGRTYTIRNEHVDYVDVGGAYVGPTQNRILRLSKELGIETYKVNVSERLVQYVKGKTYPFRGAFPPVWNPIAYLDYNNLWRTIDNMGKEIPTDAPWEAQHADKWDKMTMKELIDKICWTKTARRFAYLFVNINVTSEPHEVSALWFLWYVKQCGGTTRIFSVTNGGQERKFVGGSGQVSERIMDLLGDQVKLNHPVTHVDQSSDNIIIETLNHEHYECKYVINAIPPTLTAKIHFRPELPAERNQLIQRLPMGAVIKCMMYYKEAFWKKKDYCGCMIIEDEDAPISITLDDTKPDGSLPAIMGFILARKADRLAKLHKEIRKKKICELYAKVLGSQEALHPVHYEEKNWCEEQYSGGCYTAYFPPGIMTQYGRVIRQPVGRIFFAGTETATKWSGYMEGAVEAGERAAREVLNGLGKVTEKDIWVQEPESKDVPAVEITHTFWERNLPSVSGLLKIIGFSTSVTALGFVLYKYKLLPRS
Nature of the data set: Monoamine oxidase A inhibition. The format is biochemical.

For data set [2], the target named is T2, MAO-B (Homo sapiens, UniProt P27338).
T2 sequence (P27338 1-520): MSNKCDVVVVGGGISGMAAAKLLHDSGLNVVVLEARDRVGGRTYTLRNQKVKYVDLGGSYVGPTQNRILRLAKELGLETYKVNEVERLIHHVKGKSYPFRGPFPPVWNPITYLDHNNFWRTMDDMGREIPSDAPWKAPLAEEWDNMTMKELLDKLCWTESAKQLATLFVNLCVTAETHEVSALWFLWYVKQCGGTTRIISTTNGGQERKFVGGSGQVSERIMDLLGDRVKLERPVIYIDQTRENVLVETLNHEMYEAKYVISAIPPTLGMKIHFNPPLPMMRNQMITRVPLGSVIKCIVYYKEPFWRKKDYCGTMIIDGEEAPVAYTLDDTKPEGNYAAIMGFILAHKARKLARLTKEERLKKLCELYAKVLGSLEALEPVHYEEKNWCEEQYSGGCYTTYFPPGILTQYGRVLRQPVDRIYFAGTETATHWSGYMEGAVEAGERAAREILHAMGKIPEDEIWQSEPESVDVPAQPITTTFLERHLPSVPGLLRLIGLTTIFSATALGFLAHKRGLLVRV
Nature of the data set: Monoamine oxidase B inhibition. It is filed as biochemical.

Data set [3] is described as follows: Solubility in organic solvents. The conditions noted are these: solvents in which the compound is soluble. It is filed as physicochemical.

Drawing on paper PMC9404513 (ACS Omega, 2022), this text covers IC50 and solubility for one molecule.

The IC50 is the point on the concentration scale where inhibition reaches its midpoint. Low values mean greater potency, high ones weaker potency.

In the case of `CCOC(=O)C1=C(Nc2ccc(F)cc2)CC(c2ccc(C(F)(F)F)cc2)N(c2ccc(F)cc2)C1c1ccc(C(F)(F)F)cc1` (stereo not drawn) [FTEAA, Ethyl 4-(4-fluorophenylamino)-2,6-bis(4-(trifluoromethyl)phenyl)-1-(4-fluoro-phenyl)-1,2,5,6-tetrahydropyridine-3-carboxylate], the figures for the IC50 in data set [1] and in data set [2] were 520 ± 30 nM and 1020 ± 110 nM, respectively. In data set [3], the solubility entry was “acetone, chloroform, dichloromethane, ethyl acetate and ethanol”.
